In patent US11365410B2, “Production and monitoring of metabolites in cells” (President and Fellows of Harvard College, priority 2015, dated 2022):

How the values were obtained:
acuR = test: acuR-based 3HP biosensor induction (indirect, via acrylate); assay type: cell-based, Rhodobacter sphaeroides; conditions: 10 mM 3HP; with pcs^Δ3 and ach
Procedure: Metab Eng, 16, 130-139 hereby incorporated by reference in its entirety). All three reactions are useful for a prpR-based biosensor, but for the acuR-based biosensor, accumulation of acrylyl-CoA rather than propionyl-CoA is necessary. […] Accordingly, the domain responsible for conversion of acrylyl-CoA to propionyl-CoA was removed while preserving the activity of the other two domains. […] A 90-fold increase in fluorescence was obtained when the acuR-based biosensor was induced with 10 mM 3HP. […] Fluorescence remained at background levels for greater than 16 hours in the absence of pcs^Δ3 and ach (see FIG. 17).
Plasmids were constructed using Gibson isothermal assembly methods (see Gibson, D. G., Young, L., Chuang, R. Y., Venter, J. C., Hutchison, C. A., 3rd and Smith, H. O. (2009) Enzymatic assembly of DNA molecules up to several hundred kilobases. Nat Methods, 6, 343-345 hereby incorporated by reference in its entirety) and cloned into DH5α electrocompetent cells purchased from New England Biolabs. Biosynthesis of product molecules was carried out in either BL21 (DE3) or DH5α. The prpR-based 3HP biosensor was implemented as a two-plasmid system. The first plasmid is pPro24-GFP (Addgene plasmid #18880), which expresses GFPuv under the control of the methyl-citrate responsive transcription factor, prpR, on a pBR322 origin of replication providing β-lactam resistance. […]

prpR (E. coli) = test: prpR-based 3HP biosensor induction (indirect, via 2-methylcitrate); assay type: cell-based; conditions: 12 mM 3-HP; with pcs and prpC
Excerpt: According to a first aspect, 3-HP is transformed into 2-methylcitrate in the presence of a 2-methylcitrate sensor. The resulting system is a 3-HP biosensor. The transcriptional regulator prpR from E. coli is used to control gene expression in proportion to the concentration of 2-methylcitrate inside the cell. This inducible system has been described previously with the aim of sensing propionate—a distinct chemical from 3HP (WO 2007005837 A3, http://www.ncbi.nlm.nih.gov/pubmed/16269719). The endogenous enzyme, 2-methylcitrate synthase (prpC), and the heterologous multifunctional enzyme propionyl-CoA synthase (pcs) from the carbon fixation pathway of Chloroflexus aurantiacus (see Mattozzi, M., Ziesack, M., Voges, M. J., Silver, P. A. and Way, J. C. (2013) Expression of the sub-pathways of the Chloroflexus aurantiacus 3-hydroxypropionate carbon fixation bicycle in E. coli: Toward horizontal transfer of autotrophic growth. Metab Eng, 16, 130-139 hereby incorporated by reference in its entirety) are used to produce 2-methylcitrate from 3-HP. Together the system of three genes (pcs, prpC, prpR) comprises the prpR-based 3HP biosensor (see FIG. 15A). […] As a result of this linkage, 3-HP concentration controls expression of green fluorescent protein (GFP). […] The proportion of 2-methylcitrate produced in this way is proportional to the amount of 3-HP inside the cell. […]

[1] = tested on: prpR-based 3HP biosensor (pcs, prpC, prpR); test: prpR-based 3HP biosensor characterization; assay type: cell-based, E. coli
Excerpt: According to a first aspect, 3-HP is transformed into 2-methylcitrate in the presence of a 2-methylcitrate sensor. The resulting system is a 3-HP biosensor. The transcriptional regulator prpR from E. coli is used to control gene expression in proportion to the concentration of 2-methylcitrate inside the cell. This inducible system has been described previously with the aim of sensing propionate—a distinct chemical from 3HP (WO 2007005837 A3, http://www.ncbi.nlm.nih.gov/pubmed/16269719). The endogenous enzyme, 2-methylcitrate synthase (prpC), and the heterologous multifunctional enzyme propionyl-CoA synthase (pcs) from the carbon fixation pathway of Chloroflexus aurantiacus (see Mattozzi, M., Ziesack, M., Voges, M. J., Silver, P. A. and Way, J. C. (2013) Expression of the sub-pathways of the Chloroflexus aurantiacus 3-hydroxypropionate carbon fixation bicycle in E. coli: Toward horizontal transfer of autotrophic growth. Metab Eng, 16, 130-139 hereby incorporated by reference in its entirety) are used to produce 2-methylcitrate from 3-HP. Together the system of three genes (pcs, prpC, prpR) comprises the prpR-based 3HP biosensor (see FIG. 15A). […] As a result of this linkage, 3-HP concentration controls expression of green fluorescent protein (GFP). […] The proportion of 2-methylcitrate produced in this way is proportional to the amount of 3-HP inside the cell. The expression of the controlled gene is thus a measurement of intracellular 3-HP concentration.
DH5α cells doubly transformed with plasmids pPro24-GFP and pJKR-PCS, or plasmids pJKR-H-acuR and pJKR-PCSfrag-ACH, were exposed to increasing concentrations of 3-HP and monitored for GFP expression. Cells were grown overnight to saturation before being diluted 1:100 into fresh LB media and incubated at 200 RPM and 37° C. After four hours, 150 μl of the log-phase cells were transferred to 96-well plates and 3HP was added to the appropriate final concentration. Each inoculation and induction was performed in triplicate. Strains lacking the biosensor helper plasmids were included to reveal that the biosensor activation was indeed dependent on the presence of the helper plasmids. In the case of the end-point measurements, fluorescence was measured 16 hours after 3-HP addition with a Biotek HT plate reader (excitation 485/20, emission 528/20). Time course data was collected over a 16 hour period on the same plate reader at 37° C. with fast shaking and 10 minute measurement intervals. Fluorescence was normalized by optical density. Fold induction was determined by dividing the fluorescence obtained at the current induction level by the fluorescence obtained without induction. Error bars represent the 95% confidence interval derived from the standard error of the mean.

In the case of `O=C(O)CCO` [3-HP, 3-hydroxypropionate], the Increase in fluorescence (acuR) is reported as 90 fold, the “Fluorescent response relative to uninduced” value (prpR (E. coli)) is reported as 2.4 fold and the “time to half-maximal fluorescent response” value ([1]; 3-HP induction) is reported as 5 h. For the same compound, the “time to reach 90% induction” value ([1]; 3-HP induction) was “approximately 8 hours”, the “fluorescent response, fold greater than uninduced fluorescence” value ([1]; induced with 12 mM 3-HP) was 2.4 fold and the “response of prpR sensor alone” value ([1]; without helper enzyme pcs) was “cannot detect”.
